Assay results: patent publication US9440941B2, “Substituted chroman-6-yloxy-cycloalkanes and their use as pharmaceuticals” (SANOFI, priority 2013, dated 2016)
Structures can show the parent of a compound that is named as a salt.

Target: T1, human NCX1 (Homo sapiens, UniProt P32418)
T1 construct: expressed in transfected cells
Experiment: Inhibition of Ca2+ influx into cells (NCX1 reverse mode), FLIPR Fluo-4 assay
Type: cell-based
Conditions: at 10 μM; NCX1 reverse mode; IC50 value not determined; read-out: Inhibition in % at 10 μM (NCX1rv)
Source text: The sodium/calcium exchanger NCX1 can transport calcium ions and sodium ions through the cell membrane. The transport is an exchange of Ca^2+ and Na^+ in two directions depending on membrane potential and ion gradients. At the first direction, named “forward mode” or “calcium export mode”, Ca^2+ is transported out of the cell and Na^+ is transported into the cell. At the other direction, named “reverse mode” or “calcium import mode”, the transport directions are vice versa. The effect of the compounds of the invention on NCX1 was determined in CHO cells stably expressing human NCX1 (gene symbol SLC8A1; cf. WO 2009/115238). The assay is based on the monitoring of intracellular Ca^2+ concentrations using a calcium-sensitive fluorescence dye which is detected by means of a FLIPR device (Fluorimetric Imaging Plate Reader, Molecular Devices).
Assay Technology—Reverse Mode
The assay is based on the monitoring of intracellular Ca^2+ concentrations using the calcium-sensitive dye Fluo-4. CHO cells expressing NCX1 were loaded with the dye by means of the acetoxymethyl ester Fluo-4 AM (Invitrogen, F14202), which is cleaved intracellularly by esterase activity to yield the charged species of free Fluo-4. After an preincubation period with the test compound, Gramicidine (Sigma, G5002) was added. Gramicidine is an ionophor for Na^+ ions mediating an increase of intracellular Na^+ ions. Consequently, intracellular Na^+ ions are exchanged against extracellular Ca^2+ ions (Ca^2+ influx, reverse mode). The intracellular elevation of Ca^2+ ions was detected by measuring the fluorescence of Fluo-4 at a wavelength of 520 nm by a FLIPR device.
Briefly, for the reverse mode transport assay 18000 cells per well were seeded into a 96 well microplate (Corning COSTAR 3904) and incubated overnight in culture medium (1× Nut Mix F12 (Ham) (Gibco, 21765-029); 10% (v/v) fetal calf serum (PAA Gold, A15-649); 450 μg/ml Geneticin (Gibco, 10131-027)). A total volume of 100 μl medium per well was used. For the preparation of the FLIPR assay, the culture medium was removed from the plates and 100 μl of dye solution (2 μM Fluo-4 AM; 0.02% (v/v) Pluronic F-127 (20%, Invitrogen, P3000MP); 0.1% (v/v) bovine albumin solution (30% (v/v), Sigma, A9205) in assay buffer (133.8 mM NaCl (Sigma, S5886); 4.7 mM KCl (Sigma, P3911); 1.25 mM MgCl2 (Merck, 1.05833.0250); 3.5 mM CaCl2 (Merck, 1.02083.0250); 5 mM glucose (Sigma, G7021); 10 mM Hepes (Sigma, H4034); 0.01% (v/v) Pluronic F-127 (5%, Sigma, P2443); 2.5 mM Probenecid (Maybridge, SB00915EB); pH 7.4)) were added into each well. The plates were incubated in the dark at room temperature for 80 min. After the incubation period, the dye solution was removed and the wells were washed with 100 μl of assay buffer. Then 80 μl of a solution of the test compound in assay buffer in different concentrations were added into the wells. The plates were incubated at 16° C. for 45 min. Meanwhile a 60 μM solution of Gramicidine in assay buffer (4° C.) was prepared and stored in the wells of a 96 well microplate (96 well microplate, polypropylene, U-shape (Greiner Bio-One, 650201)) at 4° C. until measurement was started. The fluorescence monitoring was performed at 240 measuring points with measurement intervals of 2 sec. After the fifth measuring point, 40 μl of the Gramicidine solution were added to each well of the assay plates to give a final Gramicidine concentration of 20 μM. For the determination of the IC50 values the minimal fluorescence value was subtracted from the maximal fluorescence value for all measuring points. The calculation of the IC50 values via the percentage inhibitions of Ca^2+ influx into cells (reverse mode) effected by the test compound was performed in Biost@t Speed 2.0.

| Compound | inhibition at 10 µM |
| --- | --- |
| Cc1ccccc1C1CCc2cc(OC3CCC(NC4CCOCC4)CC3)ccc2O1 (stereo not drawn) [compound 197] | 96% |

Same assay, conditions: at 10 μM; NCX1 reverse mode; IC50 value not determined; read-out: NCX1rv inhibition in % at 10 μM

| Compound | inhibition at 10 µM |
| --- | --- |
| Cc1ccccc1C1CCc2cc(OC3CCC(NCCCOC(C)C)CC3)ccc2O1 (stereo not drawn) [compound 190] | 93% |

Same assay, conditions: inhibition of NCX1 in reverse mode (Ca2+ influx into cells); read-out: NCX1rv IC50

| Compound | IC50 |
| --- | --- |
| Cc1cccc(C)c1C1CCc2cc(OC3CCC(C(=O)NCc4ccno4)CC3)ccc2O1 (stereo not drawn) [compound 167] | 7700 nM |
| CCn1nccc1CNC(=O)C1CCC(Oc2ccc3c(c2)CCC(c2ccccc2)O3)CC1 (single isomer, unassigned; stereoisomer 1) [compound 93, N-(2-Ethyl-2H-pyrazol-3-ylmethyl)-[cis-4-(2-phenylchroman-6-yloxy)]-cyclohexanecarboxamide, stereoisomer 1 (2)] | 300 nM |
| Fc1ccccc1C1CCc2cc(OC3CCC(NCCC4CCOCC4)CC3)ccc2O1 (stereo not drawn) [compound 220] | 2400 nM |
| O=C(Cn1cccn1)N[C@H]1CC[C@H](Oc2ccc3c(c2)CCC(c2ccccc2)O3)CC1 (relative stereo) [compound 24] | 300 nM |
| CC1Cc2cc(OC3CCC(C(=O)NCc4ccno4)CC3)ccc2OC1c1ccccc1 (stereo not drawn) [compound 298] | 1400 nM |
| O=C(N[C@H]1CC[C@H](Oc2ccc3c(c2)CCC(c2ccccc2F)O3)CC1)C1CC1(F)F (relative stereo) [compound 251] | 5000 nM |
| O=S(=O)(CCc1ccncc1)N[C@H]1CC[C@H](Oc2ccc3c(c2)CC[C@@H](c2ccccc2)O3)CC1 [compound 75] | 1000 nM |
| CCn1nccc1CNC(=O)C1CCC(Oc2ccc3c(c2)CCC(c2ccccc2)O3)CC1 (stereo not drawn) [compound 14] | 400 nM |
| N[C@H]1CC[C@H](Oc2ccc3c(c2)CCC(c2ccccc2F)O3)CC1 (relative stereo) [compound 176, hydrochloride] | 1300 nM |
| Cn1cncc1CN[C@H]1CC[C@H](Oc2ccc3c(c2)CCC(c2ccccc2)O3)CC1 (stereo partly drawn) [compound 57, N-(3-Methylimidazol-4-ylmethyl)-[trans-4-(2-phenylchroman-6-yloxy)]-cyclohexylamine] | 500 nM |
| c1ccc(C2CCc3cc(OC4CCC(NCCCOC5CCCC5)CC4)ccc3O2)cc1 (stereo not drawn) [compound 126] | 1600 nM |
| COCC(C)(C)CNC1CCC(Oc2ccc3c(c2)CCC(c2ccccc2)O3)CC1 (stereo not drawn) [compound 115] | 1000 nM |
| COCCC(=O)N[C@H]1CC[C@H](Oc2ccc3c(c2)CCC(c2ccccc2)O3)CC1 (relative stereo) [compound 30] | 300 nM |
| O=C(CC1CC1)N[C@H]1CC[C@H](Oc2ccc3c(c2)CCC(c2ccccc2)O3)CC1 (relative stereo) [compound 27] | 200 nM |
| Cc1c(F)cccc1C1CCc2cc(OC3CCC(C(=O)NC4CCCCC4O)CC3)ccc2O1 (single isomer, unassigned) [compound 285] | 500 nM |
| O=C(CCn1cccn1)N[C@H]1CC[C@H](Oc2ccc3c(c2)CCC(c2ccccc2F)O3)CC1 (single isomer, unassigned) [compound 179] | 1200 nM |
| c1ccc(C2CCc3cc(OC4CCC(NCCCC5CCOC5)CC4)ccc3O2)cc1 (stereo not drawn) [compound 116] | 600 nM |
| N-(3-Methylbutyl)-4-(2-phenylchroman-6-yloxy)-cyclohexylamine [compound 130] | 800 nM |
| O=C(CO)N[C@H]1CC[C@H](Oc2ccc3c(c2)CCC(c2ccccc2)O3)CC1 (relative stereo) [compound 278] | 200 nM |
| Cc1ccccc1C1CCc2cc(O[C@H]3CC[C@H](C(=O)Nc4ccccn4)CC3)ccc2O1 (relative stereo) [compound 266] | 300 nM |
| NCC1CCC(Oc2ccc3c(c2)CCC(c2ccccc2)O3)C1 (stereo not drawn) [compound 305, hydrochloride] | 1500 nM |
| N[C@@H]1CC[C@@H](Oc2ccc3c(c2)CCC(c2ccccc2)O3)C1 (stereo partly drawn) [compound 304, hydrochloride] | 600 nM |

| Compound | IC50 |
| --- | --- |
| O=C(C1CCC(Oc2ccc3c(c2)CCC(c2ccccc2)O3)CC1)N(CCO)CCO (stereo not drawn) [compound 157, N,N-Bis(2-hydroxyethyl)-4-(2-phenylchroman-6-yloxy)-cyclohexanecarboxamide] | 2000 nM |
| O=C(N[C@H]1CC[C@H](Oc2ccc3c(c2)CCC(c2ccccc2F)O3)CC1)C1CCC1 (stereo partly drawn) [compound 244] | 100 nM |
| OCCNC1CCC(Oc2ccc3c(c2)CCC(c2ccccc2)O3)CC1 (stereo not drawn) [compound 15] | 200 nM |
| N-[2-(1-Isopropylpiperidin-4-yl)ethyl]-4-(2-phenylchroman-6-yloxy)-cyclohexylamine [compound 136] | 1800 nM |
| N-(2-Ethylsulfanylethyl)-4-(2-phenylchroman-6-yloxy)-cyclohexylamine [compound 131] | 600 nM |
| Cc1cccc(C)c1C1CCc2cc(OC3CCC(C(=O)NCCO)CC3)ccc2O1 (stereo not drawn) [compound 166] | 6200 nM |
| c1ccc(C2CCc3cc(O[C@H]4CC[C@H](NCc5cccs5)CC4)ccc3O2)cc1 (relative stereo) [compound 51] | 600 nM |
| O=C(CCn1cncn1)N[C@H]1CC[C@H](Oc2ccc3c(c2)CCC(c2ccccc2F)O3)CC1 (relative stereo) [compound 237] | 200 nM |
| CC(C)(C)CNC1CCC(Oc2ccc3c(c2)CCC(c2ccccc2)O3)CC1 (stereo not drawn) [compound 161, N-(2,2-Dimethylpropyl)-4-(2-phenylchroman-6-yloxy)-cyclohexylamine] | 1300 nM |
| Cc1c(F)cccc1C1CCc2cc(OC3CCC(C(=O)NC[C@@H]4CCCC[C@H]4O)CC3)ccc2O1 (stereo partly drawn) [compound 284] | 800 nM |
| 4-(2-Phenylchroman-6-yloxy)-N-(2-pyrrolidin-1-ylethyl)cyclohexylamine [compound 137] | 1300 nM |
| Cc1cc(C)n(CC(=O)N[C@H]2CC[C@H](Oc3ccc4c(c3)CCC(c3ccccc3)O4)CC2)n1 (relative stereo) [compound 41] | 300 nM |
| Cc1n[nH]c(C)c1CCC(=O)N[C@H]1CC[C@H](Oc2ccc3c(c2)CCC(c2ccccc2)O3)CC1 (relative stereo) [compound 37] | 300 nM |
| N[C@H]1CC[C@H](Oc2ccc3c(c2)CC[C@@H](c2ccccc2)O3)CC1 [compound 10, hydrochloride] | 300 nM |
| COc1c(F)cccc1C1CCc2cc(OC3CCC(C(=O)NCc4ccno4)CC3)ccc2O1 (stereo not drawn) [compound 301] | 200 nM |
| N[C@H]1C[C@@H](Oc2ccc3c(c2)CCC(c2ccccc2)O3)C1 (relative stereo) [compound 306, hydrochloride] | 1600 nM |
| CC(C)(C)CNC1CCC(Oc2ccc3c(c2)CCC(c2ccccc2)O3)CC1 (stereo not drawn) [compound 162, N-(2,2-Dimethylpropyl)-4-(2-phenylchroman-6-yloxy)-cyclohexylamine] | 2300 nM |
| O=C(N[C@H]1CC[C@H](Oc2ccc3c(c2)CCC(c2ccccc2)O3)CC1)C1CC1 (relative stereo) [compound 26] | 100 nM |
| COc1cccc(C2CCc3cc(OC4CCC(C(=O)NCCO)CC4)ccc3O2)c1F (stereo not drawn) [compound 294] | 1300 nM |
| O=C(Cn1cncn1)N[C@H]1CC[C@H](Oc2ccc3c(c2)CCC(c2ccccc2)O3)CC1 (relative stereo) [compound 35] | 100 nM |
| c1ccc(C2CCc3cc(OC4CCC(NC5CCOCC5)CC4)ccc3O2)cc1 (stereo not drawn) [compound 125] | 1900 nM |
